In US20240182470A1, “KRASG12C MUTANT PROTEIN INHIBITOR, PREARATION AND USE THEREOF” (YA THERAPEUTICS INC, priority 2021, published 2024):

Test system: H358 (KRAS G12C mutant) cells
Test: Tumor cell proliferation inhibition assay (Cell Titer-Glo, 72 h)
Assay type: cell-based
Details: inhibition of tumor cell proliferation, 72 hours with compound, 10% fetal bovine serum; read-out: NCI-H538 IC50(nm)
Experimental: The H358 (KRAS G^12C mutant) cells were digested, centrifuged and resuspended, and the cell density was measured with a Scepter automatic cell counter. The cells were diluted to a solution containing 44,000 cells per milliliter, and the density-adjusted cell solution was 90 microliters per well. into a 96-well culture plate. The 96-well plate was placed in a 37° C., 5% CO2 incubator. After the cells were cultured for 24 hours, different concentrations of the compounds to be tested were added. The cells were incubated with the compounds for 72 hours in the presence of 10% fetal bovine serum. Glo Luminescent Cell Viability Assay Kit (see manufacturer's instructions for details) was used to measure ATP content to assess cell growth inhibition. Briefly, 30 μl of Cell Titer-Glo reagent was added to each well, and the plate was shaken for 10 minutes to induce cell lysis. Fluoroskan
Ascent FL (Thermo) assay was used to record the fluorescent signal, and the maximum signal value was obtained from cells treated with dimethyl sulfoxide for 72 hours. The minimum signal value was obtained from the medium alone (the number of cells was zero), and the % inhibition rate=(the maximum signal value compound signal value)/(the maximum signal value—the minimum signal value×100%, and the data were processed using Graphpadprism 5 software. By sigmoid Dose-response curve fitting to calculate the IC50 value. “A” means IC50≤50 nM; “B” means 50<IC50≤500 nM; “C” means 500<IC50≤2000 nM; “D” means 2000 nM<IC50

Row | Compound | IC50
1 | 7-(8-Methylnaphthyl)-6-fluoro-4-(((R)-4-acryloyl-2-methylpiperazine)-1-yl)-1-y1)-2-(((S)-2,2-difluorotetrahydro-1H-pyrincyclo-7a(5H)-yl)methoxy)pyridine[2,3-d]lopyrimidine [Compound 80] | ≤ 50 nM
2 | 7-(8-Methylnaphthyl)-6-fluoro-4-(((R)-4-acryloyl-2-methylpiperazine)-1-yl)-2-(((2R,7aS)-2-fluorotetrahydro-1H-pyrincyclo-7a(5H)-yl)methoxy)pyridine[2,3-d]lopyrimidine [Compound 81] | ≤ 50 nM
3 | 7-(8-Methylnaphthyl)-6-fluoro-4-(((S)-4-(2-fluoro acryloyl)-3-carbonitrileethylpiperazine)-1-yl)-2-(((S)-2,2-difluorotetrahydro-1H-pyrincycl-7a(5H)-yl)methoxy)pyridine[2,3-d]lopyrimidine [Compound 85] | ≤ 50 nM
4 | 7-(8-Methylnaphthyl)-6-fluoro-4-(((S)-4-(2-fluoroacryloyl)-3-carbonitrileethylpiperazine)-1-yl)-2-(((2R,7aS)-2-fluorotetrahydro-1H-pyrinyl-7a(5H)-yl)methoxy)pyridine[2,3-d]lopyrimidine [Compound 82] | ≤ 50 nM
5 | 7-(8-Methylnaphthyl)-8-fluoro-4-(((R)-4-acryloyl-2-methylpiperazine)-1-yl)-2-(((2R,7aS)tetrakishydrogen-1H-pyrinyl-7a(5H)-yl)methoxy)quinazoline [Compound 61] | ≤ 50 nM
6 | 7-(8-Methylnaphthyl)-8-fluoro-4-(((R)-4-acryloyl-2-methylpiperazine)-1-yl)-2-(((S)-2,2-difluorotetrahydro-1H-pyrinyl-7a(5H)-yl)methoxy)quinazoline [Compound 62] | ≤ 50 nM
7 | 7-(8-Methylnaphthyl)-8-fluoro-4-(((S)-4-(2-fluoroacryloyl)-3-carbonitrileethylpiperazine)-1-yl)-2-(((S)-2,2-difluorotetrahydro-1H-pyrincyclo-7a(5H)-yl)methoxy)quinazoline [Compound 72] | ≤ 50 nM
8 | 7-(8-fluoronaphthyl)-8-fluoro-4-(((R)-4-acryloyl-2-methylpiperazine)-1-yl)-2-(((S)-2,2-difluorotetrahydro-1H-pyrincyclo-7a(5H)-yl)methoxy)quinazoline [Compound 59] | ≤ 50 nM
9 | 7-(8-fluoronaphthyl)-8-fluoro-4-(((S)-4-(2-fluoroacryloyl)-3-carbonitrileethylpiperazine)-1-yl)-2-(((2R,7aS)-2-fluorotetrahydro-1H-pyrinyl-7a(5H)-yl)methoxy)quinazoline [Compound 51] | ≤ 50 nM
10 | C=C(F)C(=O)N1CCN(c2cc(OC[C@@H]3CCCN3C)nc3nc(-c4cccc5cccc(F)c45)c(F)cc23)C[C@@H]1CC#N [Compound 6] | ≤ 50 nM
11 | C=C(F)C(=O)N1CCN(c2cc(OC[C@@H]3CCCN3C)nc3nc(-c4cccc5cccc(F)c45)c(F)cc23)[C@H](C)C1 [Compound 8] | ≤ 50 nM
12 | C=CC(=O)N1CCN(c2nc(OC[C@@H]3CCCN3C)nc3nc(-c4cccc5cccc(F)c45)c(F)cc23)[C@@H](C)C1 [Compound 10] | ≤ 50 nM
13 | C=CC(=O)N1CCN(c2nc(OC[C@@H]3CCCN3C)nc3nc(-c4c(O)cccc4F)c(F)cc23)[C@@H](C)C1 [Compound 12, 7-(2-Fluoro-6-hydroxyphenyl)-6-fluoro-4-(((S)-4-(2-acryloyl)-2-methylpiperazine)-1-yl)-2-(((S)-1-(methyl-d3)pyrrolidin-2-yl)methoxy)pyridine[2,3-d]lopyrimidine] | 500 to 2000 nM
14 | C=CC(=O)N1CCN(c2nc(OC[C@@]34CCCN3C[C@H](F)C4)nc3nc(-c4cccc5cccc(F)c45)c(F)cc23)C[C@H]1CC#N [Compound 25, 7-(8-Fluoronaphthyl)-6-fluoro-4-(((R)-4-acryloyl-3-carbonitrileethylpiperazine)-1-yl)-2-(((2R,7aS)-2-fluorotetrahydro-1H-pyrincycl-7a(5H)-yl)methoxy)pyridine[2,3-d]lopyrimidine] | ≤ 50 nM
15 | C=CC(=O)N1CCN(c2nc(OC[C@@]34CCCN3C[C@H](F)C4)nc3nc(-c4cccc5cccc(F)c45)c(F)cc23)[C@H](C)C1 [Compound 26, 7-(8-Fluoronaphthyl)-6-fluoro-4-(((R)-4-acryloyl-2-methylpiperazine)-1-yl)-2-(((2R,7aS)-2-Fluorotetrahydro-1H-pyrincycl-7a(5H)-yl)methoxy)pyridine[2,3-d]lopyrimidine] | ≤ 50 nM
16 | C=CC(=O)N1C2CCC1CN(c1nc(OC[C@@]34CCCN3C[C@H](F)C4)nc3nc(-c4cccc5cccc(F)c45)c(F)cc13)C2 [Compound 27] | ≤ 50 nM
17 | C=C(F)C(=O)N1CCN(c2nc(OC[C@@]34CCCN3C[C@H](F)C4)nc3nc(-c4cccc5cccc(F)c45)c(F)cc23)C[C@@H]1CC#N [Compound 29] | ≤ 50 nM
18 | C=C(F)C(=O)N1CCN(c2nc(OC[C@@]34CCCN3C[C@H](F)C4)nc3nc(-c4cccc5cccc(F)c45)c(F)cc23)[C@H](C)C1 [Compound 30] | ≤ 50 nM
19 | C=C(F)C(=O)N1C2CCC1CN(c1nc(OC[C@@]34CCCN3C[C@H](F)C4)nc3nc(-c4cc(O)cc5cccc(F)c45)c(F)cc13)C2 [Compound 32, 7-(3-Hydroxy-8-fluoronaphthyl)-6-fluoro-4-(8-(2-fluoroacryloyl)-3,8-diazabicyclo[3.2.1]octan-3-yl)-2-(((2R,7aS)-2-fluorotetrahydro-1H-pyrincycl-7a(5H)-yl)methoxy)pyridine[2,3-d]lopyrimidine] | ≤ 50 nM
20 | C=C(F)C(=O)N1CCN(c2nc(OC[C@@]34CCCN3C[C@H](F)C4)nc3nc(-c4cc(O)cc5cccc(F)c45)c(F)cc23)C[C@@H]1CC#N [Compound 33, 7-(3-Hydroxy-8-fluoronaphthyl)-6-fluoro-4-(((S)-4-(2-fluoroacryloyl)-3-carbonitrileethylpiperazine)-1-yl)-2-(((2R,7aS)-2-fluorotetrahydro-1H-pyrincycl-7a(5H)-yl)methoxy)pyridine[2,3-d]lopyrimidine] | ≤ 50 nM
21 | C=C(F)C(=O)N1CCN(c2nc(OC[C@@]34CCCN3C[C@H](F)C4)nc3nc(-c4cc(O)cc5cccc(F)c45)c(F)cc23)[C@H](C)C1 [Compound 34, 7-(3-Hydroxy-8-fluoronaphthyl)-6-fluoro-4-(((R)-4-(2-fluoroacryloyl)-2-methylpiperazine)-1-yl)-2-(((2R,7aS)-2-fluorotetrahydro-1H-pyrincyclin-7a(5H)-yl)methoxy)pyridine[2,3-d]lopyrimidine] | ≤ 50 nM
22 | C=CC(=O)N1CCN(c2nc(OC[C@@]34CCCN3C[C@H](F)C4)nc3nc(-c4cc(O)cc5cccc(F)c45)c(F)cc23)C[C@@H]1CC#N [Compound 35, 7-(3-Hydroxy-8-fluoronaphthyl)-6-fluoro-4-(((S)-4-acryloyl-3-carbonitrileethylpiperazine)-1-yl)-2-(((2R,7aS)-2-fluorotetrahydro-1H-pyrinyl-7a(5H)-yl)methoxy)pyridine[2,3-d]lopyrimidine] | ≤ 50 nM
23 | C=CC(=O)N1CCN(c2nc(OC[C@@]34CCCN3C[C@H](F)C4)nc3nc(-c4cc(O)cc5cccc(F)c45)c(F)cc23)[C@H](C)C1 [Compound 36, 7-(3-Hydroxy-8-fluoronaphthyl)-6-fluoro-4-(((R)-4-acryloyl-2-methylpiperazine)-1-yl)-2-(((2R,7aS)-2-fluorotetrahydro-1H-pyrincyclo-7a(5H)-yl)methoxy)pyridine[2,3-d]lopyrimidine] | ≤ 50 nM
24 | C=C(F)C(=O)N1CCN(c2nc(OC[C@@]34CCCN3C[C@H](F)C4)nc3c(F)c(-c4cccc5cccc(F)c45)c(Cl)cc23)[C@H](C)C1 [Compound 38, 6-Chloro-7-(8-fluoronaphthyl)-8-fluoro-4-(((R)-4-(2-fluoroacryloyl)-2-methylpiperazine)-1-yl)-2-(((2R,7aS)-2-fluorotetrahydro-1H-pyrinyl-7a(5H)-yl)methoxy)quinazoline] | ≤ 50 nM
25 | C=C(F)C(=O)N1C2CCC1CN(c1nc(OC[C@@]34CCCN3C[C@H](F)C4)nc3c(F)c(-c4cccc5cccc(F)c45)c(Cl)cc13)C2 [Compound 39, 6-Chloro-7-(8-fluoronaphthyl)-8-fluoro-4-(8-(2-fluoroacryloyl)-3,8-diazabicyclo[3.2.1]octan-3-yl)-2-(((2R,7aS)-2-fluorotetrahydro-1H-pyrincycline-7a(5H)-yl)methoxy)quinazoline] | ≤ 50 nM
26 | C=CC(=O)N1CCN(c2nc(OC[C@@]34CCCN3C[C@H](F)C4)nc3c(F)c(-c4cccc5cccc(F)c45)c(Cl)cc23)C[C@@H]1CC#N [Compound 40, 6-Chloro-7-(8-fluoronaphthyl)-8-fluoro-4-(((S)-4-acryloyl-3-carbonitrileethylpiperazine)-1-yl)-2-(((2R,7aS)-2-fluorotetrahydro-1H-pyrinyl-7a(5H)-yl)methoxy)quinazoline] | ≤ 50 nM
27 | C=C(F)C(=O)N1CCN(c2nc(OC[C@@]34CCCN3C[C@H](F)C4)nc3c(F)c(-c4cccc5cccc(F)c45)c(Cl)cc23)C[C@@H]1CC#N [Compound 41, 6-Chloro-7-(8-fluoronaphthyl)-8-fluoro-4-(((S)-4-(2-fluoroacryloyl)-3-carbonitrileethylpiperazine)-1-yl)-2-(((2R,7aS)-2-fluorotetrahydro-1H-pyrincycline-7a(5H)-yl)methoxy)quinazoline] | ≤ 50 nM
